Assay results from patent US20160243277A1, “FAST CURING POROUS MATERIALS AND CONTROL THEREOF” (priority 2013, published 2016).

How the values were obtained:
[1] = system: human mesenchymal stem cells (hMSCs); assay: Macromer extract dilution cytocompatibility test (modified ISO 10993-5, Live/Dead); details: undiluted (1X) extract from 10 minute media incubation with macromer, 24 hour culture
Experimental: Bone marrow-derived human mesenchymal stem cells (hMSCs) were obtained as Passage 1 in a cryovial from the Center for the Preparation and Distribution of Adult Stem Cells. Cells were cultured in growth media containing 16.5% fetal bovine serum (Atlanta Biologicals), 1% L-glutamine (Life Technologies) and Minimum Essential Media α (MEM α, Life Technologies) to about 80% confluency and utilized at Passages 5 and 6. Cells were trypsinized with 0.25% Trypsin-EDTA (Life Technologies) and seeded at a density of about 40,000 cells/cm^2 in a 96 well plate and allowed to adhere for about 24 hours. On the following day, about 100 μl of each macromer was incubated in about 300 μl growth media supplemented with 1 vol. % penicillin-streptomycin (Life Technologies) in a 48 well plate to mimic the ratio of organic to aqueous phase in the HIPE. After about 10 minute incubation at about 37° C., 5% CO2, the supernatant above the macromers was aspirated and diluted to about 10× and about 100× solutions. […] Extracted and diluted media (1, 10, and 100×) was then added to cells and cultured for an additional time, generally about 24 hours. Viability was assessed utilizing the Live/Dead® assay kit (registration with Molecular Probes Corporation, Eugene, Oreg.). The analysis used a plate reader (Tecan Infinite M200Pro) with excitation/emission wavelengths of 485/528 and 528/620 for calcein-AM and ethidium homodimer-1 dyes, respectively. Viability was normalized to cells on tissue culture polystyrene.

[2] = previously described PFDMA macromer; cited from earlier work

| Compound | hMSC viability after exposure to extract media [1] | Macromer viscosity [2] |
| --- | --- | --- |
| C=C(C)C(=O)OCCCCOC(=O)C(=C)C [BDMA, butane diol dimethacrylate] | less |  |
| C=C(C)C(=O)OCCOC(=O)C(=C)C [EGDMA, ethylene glycol dimethacrylate] | less |  |
| propylene fumarate dimethacrylate [PFDMA] | > 80% | about 125 cP |
